Measured values reported in patent publication US20250057913A1, “USE OF SOMATOSTATIN AGONIST IN THE TREATMENT OF SSTR3 EXPRESSING TUMORS” (ITALFARMACO SPA, priority 2021, published 2025).
*1 amine or outer side, *2 acyl side, *3 side chain or, on linkers, in order; H or OH if unused. Where a SMILES comes first, the peptide text is derived from it. Side-chain parts run from the residue outwards. [ ]: non-standard residue; d: D form. The star is where a group is joined. Ethylenediamine = C(CN[*:2])N[*:1]; Hyp = O=C(O)[C@@H]1C[C@@H](O)CN1; Phg = N[C@H](C(=O)O)c1ccccc1; CO = O=C([*:1])[*:2]; Bn = c1ccc(C*)cc1

How the values were obtained:
[1] = target: SSTR2-tGFP (Homo sapiens, UniProt P30874); assay: Internalization of SSTR2 in U2OS transfected cells; assay type: cell-based; design: expressed in transfected cells; host or cells: U2OS
SSTR2-tGFP, sequence (P30874 whole entry): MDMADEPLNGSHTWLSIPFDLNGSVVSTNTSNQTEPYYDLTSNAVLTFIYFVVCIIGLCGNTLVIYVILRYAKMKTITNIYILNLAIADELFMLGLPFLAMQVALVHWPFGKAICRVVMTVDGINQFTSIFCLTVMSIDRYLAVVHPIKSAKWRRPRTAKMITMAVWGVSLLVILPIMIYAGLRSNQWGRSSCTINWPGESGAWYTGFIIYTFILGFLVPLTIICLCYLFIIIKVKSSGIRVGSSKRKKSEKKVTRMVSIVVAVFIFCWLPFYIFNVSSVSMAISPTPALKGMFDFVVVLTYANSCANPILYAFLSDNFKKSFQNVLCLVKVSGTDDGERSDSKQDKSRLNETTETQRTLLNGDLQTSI
Text: (§1) HEK293 cells transfected with human SSTRs, and U20S cells transfected with human GFP-tagged receptors (SSTR2-tGFP, SSTR3-tGFP, SSTR5-tGFP).

[2] = test system: NT-3 cell line spheroids; assay: Cytotoxic activity on NT-3 cell line spheroids; assay type: cell-based, human; conditions: 2.56 μM, 18 days
Experimental: NT-3 well-differentiated pancreatic neuroendocrine (PanNET) cell line (32) is an in-vitro model for pancreatic tumours.
Said cells were cultured in RPMI 1640 Medium GlutaMAX™ with 10% FBS, 1% Penicillin/Streptomycin, 20ng/ml EGF (AF-100-15, Peprotech), 10 ng/ml FGF (100-18B, Peprotech).
3D spheroids were generated by seeding 2000 cells/well in a 96-well ULA plate (Corning). Four replicates for each condition were seeded.
The spheroid formation required 4 days before starting the treatment.
The treatment was repeated every 3 days by replacing 50% of the medium (to avoid spheroid removal) with new medium containing 2× desired drug concentration.
Spheroid morphology was monitored every day during the treatment and pictures were taken on day 0, 4, 7, 11, 14, 18. Day 0 corresponds to the first day of treatment. Pictures were taken from the same well every time point.

[3] = target: SSTR3-tGFP (Homo sapiens, UniProt P32745); assay: Internalization of SSTR3 in U2OS transfected cells; assay type: cell-based; design: expressed in transfected cells; host or cells: U2OS
SSTR3-tGFP, sequence (P32745 whole entry): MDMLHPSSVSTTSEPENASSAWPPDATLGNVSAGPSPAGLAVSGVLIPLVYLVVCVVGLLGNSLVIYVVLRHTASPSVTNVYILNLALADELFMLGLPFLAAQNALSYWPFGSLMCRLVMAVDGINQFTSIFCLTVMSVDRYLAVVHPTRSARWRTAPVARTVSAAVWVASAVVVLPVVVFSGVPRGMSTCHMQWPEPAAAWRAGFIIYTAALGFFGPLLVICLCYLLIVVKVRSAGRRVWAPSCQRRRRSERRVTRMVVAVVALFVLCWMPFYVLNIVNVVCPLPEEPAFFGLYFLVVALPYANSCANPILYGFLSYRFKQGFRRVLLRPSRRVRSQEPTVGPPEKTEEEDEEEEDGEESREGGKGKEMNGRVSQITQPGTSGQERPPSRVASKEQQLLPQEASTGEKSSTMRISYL
Text: as §1

[4] = target: T1, SSTR2 (Homo sapiens, UniProt P30874); assay: SSTR2 phosphorylation in HEK293 transfected cells (phosphosite-specific antibodies); assay type: cell-based; design: expressed in transfected cells; conditions: 10 or 1 μM, 10 min at 37° C.
T1 sequence (P30874 whole entry): as the sequence (P30874 whole entry) above
Experimental: (A) Schematic representation of the human SSTR2 receptor indicating all potential phosphate acceptor sites within the carboxyl-terminal tail. Epitopes of the phosphosite-specific antibodies are marked (-P). […] The levels of phosphorylated SSTR2 receptor were then determined using the phosphosite-specific anti-pS341/pS343, pT353/T354, pT356/T359 antibodies. […] Blots shown are representative of three independent experiments. The positions of molecular mass markers are indicated on the left (in kDa).

[5] = target: T2, SSTR5 (Homo sapiens, UniProt P35346); assay: SSTR5 phosphorylation in HEK293 transfected cells (anti-pT333); assay type: cell-based; design: expressed in transfected cells; conditions: 10 min at 37° C.
T2 sequence (P35346 whole entry): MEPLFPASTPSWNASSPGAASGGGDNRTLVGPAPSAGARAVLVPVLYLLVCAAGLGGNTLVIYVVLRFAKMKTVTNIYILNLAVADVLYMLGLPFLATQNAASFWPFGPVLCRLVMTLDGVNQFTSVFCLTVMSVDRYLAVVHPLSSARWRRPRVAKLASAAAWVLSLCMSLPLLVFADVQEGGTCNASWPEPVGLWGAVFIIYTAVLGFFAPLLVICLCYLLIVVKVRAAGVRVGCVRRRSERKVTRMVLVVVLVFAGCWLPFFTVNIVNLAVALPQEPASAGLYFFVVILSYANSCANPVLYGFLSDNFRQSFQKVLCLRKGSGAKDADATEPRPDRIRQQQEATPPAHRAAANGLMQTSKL
Text: FIG. 9—Agonist-selective SSTR5 phosphorylation in HEK293 transfected cells. (A) Schematic representation of the human SSTR5 receptor indicating all potential phosphate acceptor site within the carboxyl-terminal tail. Epitope of the phosphosite-specific antibodies are marked (-P) . . . […] (C) Blots were subsequently stripped and reprobed with anti-HA antibody to confirm equal loading of the gels. Blots shown are representative of three independent experiments. The positions of molecular mass markers are indicated on the left (in kDa).
(§2) Finally, the SSTR5 pT333 phosphosite was only partially affected by all tested compounds, with Pasireotide showing the most pronounced effect (FIG. 9B, C).

[6] = test system: Clinically Non-Functioning Pituitary Adenoma; conditions: Pasireotide LAR, NFPA patients; cited from earlier work
[7] = target: T2, SSTR5
Text: (§3) Therefore, G protein-signaling mediated by SSTR agonists was studied using a GIRK-based fluorescence membrane potential assay both in HEK293 cells transfected with hSSTR3, and in AtT20 wild-type as well as hSSTR3-transfected cells.

[8] = target: T1, SSTR2; assay: cell-based; design: expressed in transfected cells; host or cells: HEK293 co-expressing GIRK2-GFP
Text: as §3

[9] = target: T3, SSTR3 (Homo sapiens, UniProt P32745); assay: SSTR3 phosphorylation in HEK293 transfected cells (phosphosite-specific antibodies); assay type: cell-based; design: expressed in transfected cells; conditions: 10^−12 to 10^−5 M, 10 min at 37° C.
T3 sequence (P32745 whole entry): as the sequence (P32745 whole entry) above
Experimental: The levels of phosphorylated SST3 receptor were then determined using the phosphosite-specific anti-pS337/pT341 or anti-pT348.
as §2

[10] = target: SSTR5-tGFP (Homo sapiens, UniProt P35346); assay: Internalization of SSTR5 in U2OS transfected cells; assay type: cell-based; design: expressed in transfected cells; host or cells: U2OS
SSTR5-tGFP, sequence (P35346 whole entry): as the sequence (P35346 whole entry) above
Text: as §1

[11] = test system: opioid receptors; assay: single dose binding assays on opioid receptors; conditions: single dose 10^−5 M
[12] = test system: NFPAs in MENX (homozygous mutant) rats; conditions: female and male rats; cited from earlier work
[13] = target: T3, SSTR3; assay: GIRK-based fluorescence membrane potential assay, HEK293-GIRK2-GFP-HA-hSST3
Text: The concentrations used are indicated. […] Data points represent mean±S.E.M.
as §3

[14] = target: wild-type hSSTR2 stably expressed in HEK293 cells (human) (UniProt P30874)
[15] = target: wild-type hSSTR5 stably expressed in HEK293 cells (human) (UniProt P35346)
[16] = target: wild-type hSSTR3 stably expressed in HEK293 cells (human) (UniProt P32745)

| Compound | Mean of internalized fluorescence, SSTR2 ([1]; 1 μM) [AU] | Mean of internalized fluorescence, SSTR2 ([1]; 10 μM) [AU] | spheroid morphology at the highest concentration [2] | Mean of internalized fluorescence, SSTR3 ([3]; 1 μM) [AU] | Mean of internalized fluorescence, SSTR3 ([3]; 10 μM) [AU] | phosphorylation of SSTR2 (pS341/pS343, pT353/T354, pT356/T359) [4] | Compound activity (EC50 nM), GIRK membrane potential assay [14] [nM] | other results |
| --- | --- | --- | --- | --- | --- | --- | --- | --- |
| C[C@@H](O)[C@@H]1NC(=O)[C@H](CCCCN)NC(=O)[C@@H](Cc2c[nH]c3ccccc23)NC(=O)[C@H](Cc2ccccc2)NC(=O)[C@@H](NC(=O)[C@H](N)Cc2ccccc2)CSSC[C@@H](C(=O)N[C@H](CO)[C@@H](C)O)NC1=O [Octreotide] | 74.1 | 81.0 | still maintain their morphology | 43.4 | 55.2 | full phosphorylation of SSTR2 | – | rank as SSTR2-tGFP internalization inducer [1]: most potent internalization inducer |
| NCCCC[C@@H]1NC(=O)[C@@H](Cc2c[nH]c3ccccc23)NC(=O)[C@H](c2ccccc2)NC(=O)[C@@H]2C[C@@H](OC(=O)NCCN)CN2C(=O)[C@H](Cc2ccccc2)NC(=O)[C@H](Cc2ccc(OCc3ccccc3)cc2)NC1=O [Pasireotide, reference compound] (cyclo([Hyp]([CO-Ethylenediamine])[Phg][dW]KY(Bn)F)) | 49.2 | 50.5 | still maintain their morphology | 41.6 | 46.3 | selective phosphorylation of S341/S343 | – | phosphorylation of SSTR5 (pT333) [5]: more potent than ITF2984 and octreotide; patients reaching a tumor size reduction at least 20% [6]: 16.7%; EC50 [7]: 16.5 ± 2.5 nM; EC50 [8]: 60 ± 16.3 nM; phosphorylation of SSTR3 (pS337/pT341, pT348) [9]: weak effect; Mean of internalized fluorescence, SSTR5 ([10]; 1 μM): 40.5 AU; Mean of internalized fluorescence, SSTR5 ([10]; 10 μM): 43.9 AU; replacement of agonists [11]: fully replace agonists; antitumor activity in the MENX model (published report) [12]: higher antitumor activity than Octreotide; EC50 [13]: 63 ± 7.5 nM |
| Octreotide (peptide) | – | – | – | – | – | – | 4 | – |
| Pasireotide (peptide) | – | – | – | – | – | – | 60 | Compound activity (EC50 nM), GIRK membrane potential assay [15]: 16.5 nM; Compound activity (EC50 nM), GIRK membrane potential assay [16]: 63 nM |
